Reference: paper PMC7914897, “Cytotoxic Potential of a-Azepano- and 3-Amino-3,4-SeCo-Triterpenoids” (International Journal of Molecular Sciences, 2021)
Where two headings read alike, the source gives them in different places.

Tests used:
[1] = system: MCF-7 (breast carcinoma); experiment: SRB cytotoxicity assay, 72 h; type: cell-based, human; details: Homo sapiens, MCF7; MCF-7, 72 h, cut-off 30 µM; read-out: EC50
Summary of the method: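 EC50 values reflect percent surviving cells versus untreated controls, read at 570 nm after SRB staining of TCA-fixed monolayers. Dosing spanned 0–30 µM over 72 h.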

[2] = system: HL-60(TB) (Leukemia); experiment: NCI-60 screen (SRB, 48 h); type: cell-based; details: Homo sapiens; for IC (TGI): 48 h; for CC50: read-out: LC50 (the source's name)
[3] = system: SR (Leukemia); experiment: NCI-60 screen (SRB, 48 h); type: cell-based; details: for GI50 / CC50: Homo sapiens; for CC50: read-out: LC50 (the source's name)
[4] = system: panel of approximately 60 cancer cell lines; experiment: NCI-60 screen (SRB, 48 h), full panel; details: for Positive Cytostatic Effect (cell lines with percent growth 0 to 50 / total) / Positive Cytotoxic Effect (cell lines with percent growth < 0 / total) / number of cancer cell lines the compound was active against: 1 dose 10 µM; for activity at 10 µM / IC (TGI) / GI50 / CC50: Homo sapiens; for activity at 10 µM / IC (TGI): 48 h; for IC (TGI): read-out: TGI MG_MID60, average over all cell lines; for CC50: read-out: LC50 MG_MID60, average over all cell lines
[5] = read-out: GI50 against all human tumor cell lines
[6] = read-out: GI50 against the most sensitive cell lines

| Structure (SMILES) | EC50 [1] [nM] | GI50 [2] [nM] | IC (TGI) [2] [nM] | CC50 [2] [nM] | TGI [3] [nM] | GI50 [3] [nM] | Positive Cytostatic Effect (cell lines with percent growth 0 to 50 / total) [4] | Positive Cytotoxic Effect (cell lines with percent growth < 0 / total) [4] | number of cancer cell lines the compound was active against [4] [cell lines] | activity at 10 µM ([4]; read-out: Mean Growth, %) [%] | activity at 10 µM ([4]; read-out: Range of Growth, %) [%] | IC (TGI) [4] [nM] | GI50 ([4]; read-out: GI50 MG_MID60) [nM] | GI50 [4, 5] [nM] | GI50 [4, 6] [nM] | CC50 [4] [nM] | CC50 [3] [nM] |
| --- | --- | --- | --- | --- | --- | --- | --- | --- | --- | --- | --- | --- | --- | --- | --- | --- | --- |
| CC(C)=C1CCC=C2CC[C@]3(C)[C@H](CC[C@@H]4[C@@]5(C)CCCNC(C)(C)[C@@H]5CC[C@]43C)[C@H]21 [Compound 9] | 1520 | 1700 | 3500 | 7190 | 3160 | 1140 | 15/58 | 24/58 | 36 | 13.6 | -100 to 107 | 3350 | 1750 | < 3000 | 200 to 940 | 6430 |  |
| C=C(C)[C@@H]1CC[C@]2(COS(=O)(=O)c3ccc(C)cc3)CC[C@]3(C)[C@@H](CC[C@@H]4[C@@]5(C)CCCNC(C)(C)[C@@H]5CC[C@]43C)[C@@H]12 [Compound 12] | 1630 ± 100 |  |  |  |  |  | 11/60 |  | 39 | -3.21 | -94.4 to 98.7 | 3430 | 1770 | < 3000 |  | 5840 |  |
| C[C@H]1[C@H](C)CC[C@]2(C(=O)Nc3ccc4ncccc4c3)CC[C@]3(C)C(=CC[C@@H]4[C@@]5(C)CCCNC(C)(C)[C@@H]5CC[C@]43C)[C@H]12 [Compound 14] | 1640 ± 100 | 1640 | 3630 |  |  |  | 3/59 | 42/59 | 45 | -27.9 | -100 to 110 | 3350 | 1720 | < 3000 |  | 6520 |  |
| Cc1ccc(S(=O)(=O)OC[C@]23CCC(C)(C)C[C@H]2C2=CC[C@@H]4[C@@]5(C)CCCNC(C)(C)[C@@H]5CC[C@@]4(C)[C@]2(C)CC3)cc1 [Compound 15] | 2400 ± 100 | 1850 | 4060 |  |  | 340 | 17/60 | 14/60 | 22 | 37.2 | -87.7 to 104 | 3800 | 1990 | < 15000 | 200 to 940 | 18900 | > 100000 |
| Cc1ccc(S(=O)(=O)OC[C@@]2(C)CC[C@]3(C)CC[C@]4(C)C(=C3C2)C=C[C@@H]2[C@@]3(C)CCCNC(C)(C)[C@@H]3CC[C@]24C)cc1 [Compound 16] | 1540 ± 100 | 1980 | 4020 |  |  | 310 | 12/60 | 31/60 | 40 | -0.81 | -99.2 to 104 | 3520 | 1720 | < 3000 | 200 to 940 |  | > 100000 |
| C=C(C)[C@@H]1CC[C@]2(C)[C@H](CC=C3[C@@H]4[C@@H](C)[C@H](C)CC[C@]4(CO)CC[C@]32C)[C@@]1(C)CCCN [Compound 19] | 2050 ± 200 | 1030 | 2270 | 5000 |  |  | 20/60 | 28/60 | 45 | -4.29 | -99 to 84.5 | 3890 | 1420 | < 10000 | 200 to 940 | 17000 |  |
| C=C(C)[C@@H]1CC[C@]2(C)[C@H](C=CC3=C4C[C@@](C)(CO)CC[C@]4(C)CC[C@]32C)[C@@]1(C)CCCN [Compound 20] | 2840 ± 200 | 1580 | 3620 |  |  |  | 8/60 | 46/60 | 52 | -36.5 | -100 to 90.8 | 3360 | 1660 | < 3000 | 200 to 940 | 17300 |  |
